Target: Casein kinase II subunit alpha (Homo sapiens, UniProt P68400)
Assay: Inhibition of human CK2alpha (2 to 391 residues) using [33P]-ATP by scintillation counting based radioactive filter binding assay

Casein kinase II subunit alpha, sequence (P68400 whole entry, the tested form may be a part): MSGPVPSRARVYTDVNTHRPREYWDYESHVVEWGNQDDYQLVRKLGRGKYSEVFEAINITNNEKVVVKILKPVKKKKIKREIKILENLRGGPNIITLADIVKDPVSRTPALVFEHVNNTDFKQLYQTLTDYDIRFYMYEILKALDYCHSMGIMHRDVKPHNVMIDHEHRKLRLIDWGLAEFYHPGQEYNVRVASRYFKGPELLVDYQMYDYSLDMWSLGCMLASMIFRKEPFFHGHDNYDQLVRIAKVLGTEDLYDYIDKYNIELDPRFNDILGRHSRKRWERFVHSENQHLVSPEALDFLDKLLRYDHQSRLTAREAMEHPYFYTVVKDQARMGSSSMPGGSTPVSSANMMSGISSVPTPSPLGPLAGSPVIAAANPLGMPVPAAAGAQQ

Structure (SMILES) | IC50 [µM]
O=C(Nc1ccccc1)c1n[nH]c2ccc([N+](=O)[O-])cc12 | > 200
CCc1nnc(-c2cccc(NC(=O)c3n[nH]c4ccccc34)c2)o1 | > 200
O=C(Nc1n[nH]c2cccc(F)c12)c1ccc2c(c1)CCO2 | > 200
Cc1cc2cc(NC(=O)c3n[nH]c4ccccc34)ccc2[nH]1 | > 200

From ChEMBL document CHEMBL3822418, “Enriching screening libraries with bioactive fragment space” (Bioorg Med Chem Lett, 2016)
